We go through 14 compounds from patent US5314886A, “N-substituted lactams useful as cholecystokinin antagonists” (priority 1992, dated 1994).

Where a name gives a salt, the structure may show the parent alone.

In test [1] the target is T1, CCK-B (Cavia porcellus, UniProt H0VZC5).
T1 construct: Rat pancreas or guinea pig brain was homogenized; from tissue; host or cells: guinea pig brain homogenate (membrane pellet)
T1 sequence (H0VZC5 1-426): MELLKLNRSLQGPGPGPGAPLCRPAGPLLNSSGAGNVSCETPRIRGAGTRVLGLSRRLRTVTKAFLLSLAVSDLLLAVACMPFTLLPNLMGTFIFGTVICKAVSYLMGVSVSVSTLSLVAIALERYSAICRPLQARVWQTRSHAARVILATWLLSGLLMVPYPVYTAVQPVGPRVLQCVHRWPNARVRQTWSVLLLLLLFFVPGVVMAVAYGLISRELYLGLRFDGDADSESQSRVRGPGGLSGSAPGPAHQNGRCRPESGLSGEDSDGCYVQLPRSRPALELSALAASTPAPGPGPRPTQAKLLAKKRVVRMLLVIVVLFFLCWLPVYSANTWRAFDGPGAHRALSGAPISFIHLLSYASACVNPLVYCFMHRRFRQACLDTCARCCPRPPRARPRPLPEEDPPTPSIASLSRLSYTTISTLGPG
Briefly: Displacement of 125I-CCK-OP binding to guinea pig brain homogenates (CCK-B binding). Conditions: guinea pig brain membranes; for IC50: 125I-CCK-OP, read-out: CCK-B binding GP brain membranes: IC50; for inhibition at 10 µM: read-out: CCK-B binding GP brain membranes: percent displacement of 125I-CCK-OP. How it is done: Percent displacement of ^125 I-CCK-OP binding to rat pancreatic membrane and guinea pig brain homogenates by compounds of the instant invention at different concentrations was used to quantify CCK-A and CCK-B receptor binding, respectively.
Binding of 125-CCK-OP to rat pancreas (CCK-A) and guinea pig brain (CCK-B) homogenates.
Rat pancreas or guinea pig brain was homogenized in 50 and 20 volumes, respectively, of 50 mM Tris-HCl buffer (pH 7.8 at 25° C.) with a Brinkmann polytron homogenizer. The homogenates were centrifuged twice at 50,000 x g for 20 min with an intermediate rehomogenization in fresh buffer. The final pellets were resuspended in 20 volumes (brain) or 40 volumes (pancreas) of incubation buffer [50 mM Tris-HCl, 5 mM MgCl2, 0.2% BSA, 5 mM dithiothreitol, 0.14 mg/ml bacitracin, pH 7.9 at 25° C.]. One milliliter of the final homogenate from brain or pancreas was diluted to 50 mL with incubation buffer to use in the binding assay.
Binding experiments were performed in a final volume of 1 mL in 13×100 mm borosilicate disposable culture tubes. To duplicate tubes were added 890 μL of freshly resuspended pancreas or brain homogenate; 73,000 dpm of […] (final concentration, 12 pM) and 10 μL of DMSO containing displacing agents (compounds or reference compounds, at the desired final concentrations). Nonspecific (nonsaturable) binding was determined in the presence of 1 μM unlabeled CCK-OP. After incubation for 30 min at 37° C. the binding was stopped by rapid filtration under a reduced pressure through glass fiber FPD-105 Whatman GF/B filters on Harvester and washed twice with 5 mL of ice-cold Tris buffer (50 mM Tris-HCl, pH 7.8). The radioactivity on the filters was counted in a gama counter. […] Specific binding was defined as the excess binding over that in blanks containing 1 μM unlabeled CCK-OP.
Determination of IC50 for displacing agents
For orientation: Loss of bound radioactivity is the signal in a displacement assay; it reports binding, not function.

The target of test [2] is T2, CCK-A (Rattus norvegicus, UniProt P30551).
T2 sequence (P30551 1-444): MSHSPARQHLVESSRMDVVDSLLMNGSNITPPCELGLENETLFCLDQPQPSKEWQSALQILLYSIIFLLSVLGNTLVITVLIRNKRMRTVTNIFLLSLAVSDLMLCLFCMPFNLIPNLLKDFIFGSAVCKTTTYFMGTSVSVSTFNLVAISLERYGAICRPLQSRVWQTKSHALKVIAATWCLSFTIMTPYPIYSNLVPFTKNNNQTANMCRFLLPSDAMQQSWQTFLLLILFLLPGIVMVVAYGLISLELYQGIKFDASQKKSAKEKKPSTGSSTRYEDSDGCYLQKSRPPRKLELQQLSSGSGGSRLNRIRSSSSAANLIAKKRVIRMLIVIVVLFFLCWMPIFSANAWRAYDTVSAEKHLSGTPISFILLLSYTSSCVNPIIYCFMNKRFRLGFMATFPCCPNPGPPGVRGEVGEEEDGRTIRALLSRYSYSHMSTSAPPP
Kind of test: Displacement of 125I-CCK-OP binding to rat pancreatic membranes (CCK-A binding). Conditions: for IC50: 125I-CCK-OP.

Take `O=C(Cc1c[nH]c2ccccc12)N[C@@H]1C(=O)N(c2ccccc2)C[C@H]1C(=O)O` (relative stereo) [Example 51, trans-4-[(3-indolylacetyl)amino]-5-oxo-1-phenyl-3-pyrrolidinecarboxylic acid]: the IC50 in test [1] was over 10000 nM; in test [2] it was over 1000 nM.
In the same order, the values of `O=C(Nc1ccc(Cl)c(Cl)c1)N[C@H]1C(=O)N(c2ccccc2)C[C@H]1C(=O)O` (relative stereo) [Example 36 (cis), cis-4-[[[(3,4-dichlorophenyl)amino]carbonyl]amino]-5-oxo-1-phenyl-3-pyrrolidinecarboxylic acid] are 10000 nM and 100 nM.
For `CCCCCN1C[C@@H](C(=O)O)[C@@H](NC(=O)Nc2ccc(Cl)c(Cl)c2)C1=O` (relative stereo) [Example 34, cis-4-[[[(3,4-dichlorophenyl)amino]carbonyl]amino]-5-oxo-1-pentyl-3-pyrrolidinecarboxylic acid], the concentration for half-maximal inhibition (IC50) in test [1] is 6000 nM; in test [2], 350 nM.
As for `CCCCCN1C[C@@H](C(=O)O)[C@@H](NC(=O)Nc2ccc3ccccc3c2)C1=O` (relative stereo) [Example 40, cis-4-[[(2-Naphthalenylamino)carbonyl]amino]-5-oxo-1-pentyl-3-pyrrolidinecarboxylic acid], the IC50 amounted to 10000 nM in test [1] and 2800 nM in test [2].
For `O=C(N[C@@H]1C(=O)N(c2ccccc2F)C[C@@H]1C(=O)O)c1cnc2ccccc2c1` (relative stereo) [Example 28, cis-1-(2-fluorophenyl)-5-oxo-4-[(3-quinolinylcarbonyl)amino]5-oxo-3-pyrrolidinecarboxylic acid], in test [1], the IC50 was over 10000 nM.
Regarding `O=C(N[C@@H]1C(=O)N(c2ccccc2)C[C@H]1C(=O)O)c1cc2ccccc2[nH]1` (relative stereo) [Example 30, trans-4-[(1H-Indol-2-ylcarbonyl)amino]-5-oxo-1-phenyl-3-pyrrolidinecarboxylic acid], in test [2], the half-inhibitory concentration (IC50) was found to be 320 nM.
For the compound `CCCCCN1C[C@@H](C(=O)O)[C@@H](NC(=O)c2ccc(Cl)cc2)C1=O` (relative stereo) [Example 45], the IC50 in test [1] is over 10000 nM; in test [2] it was over 1000 nM.
Regarding `O=C(N[C@@H]1C(=O)N(c2ccccc2)C[C@H]1C(=O)N1CCCC1)c1ccc2ccccc2c1` (relative stereo) [Example 55, trans-1-[[3-[(2-Naphthalenylcarbonyl)amino]-2-oxo-1-phenyl-4-pyrrolidinyl]carbonyl]pyrrolidine], the IC50 in test [1] was determined as 10000 nM. In addition, the inhibition at 1 µM in test [2] (@ 1.0 (uM), read-out: CCK-A binding rat pancreatic membranes: percent displacement of 125I-CCK-OP) turned out to be 27%.
For `O=C(Nc1ccc(Cl)c(Cl)c1)N[C@@H]1C(=O)N(c2ccccc2)C[C@H]1C(=O)O` (relative stereo) [Example 36 (trans)], the inhibition at 10 µM in test [1] is 45%. This compound also came in with an IC50 in test [2] of over 1000 nM.
In the case of `CCCCCN1C[C@H](C(=O)O)[C@H](NC(=O)Nc2ccc(Cl)cc2)C1=O` (relative stereo) [47 cis], the IC50 in test [2] was over 1000 nM.
As to `CCCCCN1C[C@@H](C(=O)O)[C@@H](NC(=O)c2cnc3ccccc3c2)C1=O` (relative stereo) [Example 27, cis-5-oxo-1-pentyl-4-[(3-quinolinylcarbonyl)amino]-3-pyrrolidinecarboxylic acid, monohydrochloride], the IC50 in test [1] is over 10000 nM; in test [2], 250 nM.
As to `CCCCCN1C[C@@H](C(=O)O)[C@@H](NC(=O)c2ccc(Cl)c(Cl)c2)C1=O` (relative stereo) [Example 32, cis-4-[[(3,4-Dichlorophenyl)carbonyl]amino]-5-oxo-1-pentyl-3-pyrrolidinecarboxylic acid], the inhibition at 10 µM in test [1] worked out at 49%. In addition, the IC50 in test [2] is 300 nM.
Take `CCCCCN1C[C@@H](C(=O)O)[C@H](NC(=O)c2ccc3ccccc3c2)C1=O` (relative stereo) [Example 39, trans-4-[(2-Naphthalenylcarbonyl)amino]-5-oxo-1-pentyl-3-pyrrolidinecarboxylic acid]: the IC50 in test [2] is over 10000 nM.
Same read-out and setting: to `CCCCCN1C[C@@H](C(=O)O)[C@H](NC(=O)Nc2ccc(Cl)cc2)C1=O` (relative stereo) [47 trans] belongs over 1000 nM.

A word on the IC50: it is the concentration at which inhibition is half-maximal.
